# According to EP0089154A2, “Ethanolamine derivatives, their preparation and use in pharmaceutical compositions” (BEECHAM GROUP PLC, priority 1982, dated 1983):
# Counter-ions that a name gives are not always drawn. Like-named read-outs stand apart in the source and are kept apart here.
# Experiments:
# Female CFLP mice = experiment: Anti-hyperglycaemic activity: subcutaneous glucose load in fasted mice; assay type: in vivo; details: Mus musculus, po, read-out: % REDUCTION IN AREA UNDER BLOOD GLUCOSE CURVE; for inhibition in vivo at 12.5 µmol/kg: dose 12.5 μmol/kg orally
# Method: Female CFLP mice, weighing approximately 25 g, were fasted for 24 hours prior to the study. The compounds under study were administered orally as an aqueous solution to each of 6 mice. 30 Minutes later a blood sample (10 pl) was obtained from the tail for the analysis of blood glucose. Immediately after taking this blood sample, glucose (1 g/kg body weight) was administered subcutaneously to each mouse. 6 Mice were given water as a control. Blood samples were then obtained from each mouse at 30 minute intervals for 120 minutes.
# Compounds that produced a significant (P 0.05) reduction of blood glucose, compared with control mice given water, at any time interval, were considered active. The area under the blood glucose curve over the 2 hour period after the administration of the glucose was calculated for each compound and compared with the value for control animals.
# Rat hearts = experiment: Cardiac activity: Langendorff perfused rat heart
# Method: Rat hearts were perfused by the Langendorff procedure. Hearts were dissected free within 30 seconds of death and reverse perfused via the aorta and coronary vessels with Krebs-Ringer bicarbonate solution (pH 7.4, 37°C) gassed with 95% oxygen:5% carbon dioxide at a flow rate between 8-12 cm^3/minute. Responses were observed after injection of drug dissolved in isotonic saline into the perfusion media.
# Results are expressed as a percentage of the maximum response due to salbutamol.
# rat ear = experiment: Anti-inflammatory activity: croton oil induced rat ear inflammation; assay type: in vivo; details: 1.00 mg/rat ear, topical in 1% croton oil in tetrahydrofuran, ear weight after 6 hours
# Method: The method used is based on that described by G.Tonelli et al (Endocrinology, 77, 625-634, 1965). An inflammation is induced in the rat ear by the application of 50 pl of a 1% solution of croton oil in tetrahydrofuran, test compounds being dissolved in the irritant vehicle. After 6 hours the inflammation is assessed by killing the animals and weighing the ears. Topical anti-inflammatory activity of a compound is generally considered to be shown when a significant (5% level) reduction in ear weight is seen compared to non- drug treated control.
# [1] = mice fasted 24 hours, glucose 1 g/kg subcutaneously, 2 hour period, compared with control given water
# [2] = 30 µg added to perfusate, perfused rat heart, read-out: HEART RATE
# [3] = 30 µg added to perfusate, perfused rat heart, read-out: HEART TENSION
# [4] = dose 1.0 μmol/kg orally, mice fasted 24 hours, glucose 1 g/kg subcutaneously, 2 hour period, compared with control given water
# [5] = dose 2.5 μmol/kg orally, mice fasted 24 hours, glucose 1 g/kg subcutaneously, 2 hour period, compared with control given water
compound,measurement,setting,value
"COC(=O)CCSc1ccc(CC(C)NCC(O)c2cccc(C(F)(F)F)c2)cc1 (centres unmarked) [Example 1, N-[2-(4-(2-Carbomethoxyethylthio)phenyl)-1-methylethyl] 2-hydroxy-2-(3-trifluoromethylphenyl)ethanamine]",inhibition in vivo at 12.5 µmol/kg,Female CFLP mice; [1],35%
same,Emax at 30 µg,Rat hearts; [2],0%
same,Emax at 30 µg,Rat hearts; [3],4%
same,inhibition,rat ear,89%
same,Activity,rat ear; active = significant (5% level) reduction in ear weight,Active
"CSc1ccc(CC(C)NCC(O)c2cccc(Cl)c2)cc1 (centres unmarked) [Example 2, N-[2-(4-Methylthiophenyl)-1-methylethyl]-2-hydroxy-2-(3-chlorophenyl)ethanamine]",inhibition in vivo at 1 µmol/kg,Female CFLP mice; 2 h,8%
same,Emax at 30 µg,"Rat hearts; Rattus norvegicus, read-out: HEART RATE",23%
same,Emax at 30 µg,"Rat hearts; Rattus norvegicus, read-out: HEART TENSION",25%
"CC(Cc1ccc(SC(C)C)cc1)NCC(O)c1cccc(Cl)c1 (centres unmarked) [Example 3, N-[2-(4-Isopropylthiophenyl)-1-methylethyl]-2-hydroxy-2-(3-chlorophenyl)ethanamine hydrochloride]",inhibition in vivo at 0.5 µmol/kg,Female CFLP mice; 2 h,28%
"CC(Cc1ccc(SCc2ccccc2)cc1)NCC(O)c1cccc(Cl)c1 (centres unmarked) [Example 4, N-[2-(4-Benzylthiophenyl)-1-methylethyl]-2-hydroxy-2-(3-chlorophenyl)ethanamine]",inhibition in vivo at 12.5 µmol/kg,Female CFLP mice; [1],17%
"CC(Cc1ccc(S(C)(=O)=O)cc1)NCC(O)c1cccc(C(F)(F)F)c1 (centres unmarked) [Example 7, N-[2-(4-Methylsulphonylphenyl)-1-methylethyl]-2-hydroxy-2-(3-trifluoromethylphenyl)ethanamine]",inhibition in vivo at 12.5 µmol/kg,Female CFLP mice; [1],48%
same,Emax at 30 µg,Rat hearts; [2],25%
same,Emax at 30 µg,Rat hearts; [3],0%
"CC(Cc1ccc(S(=O)(=O)C(C)C)cc1)NCC(O)c1cccc(C(F)(F)F)c1 (centres unmarked) [Example 8, N-[2-(4-Isopropylsulphonylphenyl)-1-methylethyl]-2-hydroxy-2-(3-trifluoromethylphenyl)ethanamine]",Emax at 30 µg,Rat hearts; [2],29%
same,Emax at 30 µg,Rat hearts; [3],30%
"CC(Cc1ccc(S(=O)(=O)CCCO)cc1)NCC(O)c1cccc(C(F)(F)F)c1 (centres unmarked) [Example 9, N-[2-(4-{3-Hyaroxypropylsulphonyl}phenyl)-1-methylethyl] -2-hydroxy-2-(3-trifluoromethylphenyl)-ethanamine]",inhibition in vivo at 12.5 µmol/kg,Female CFLP mice; [1],52%
"COC(=O)CCS(=O)(=O)c1ccc(CC(C)NCC(O)c2cccc(Cl)c2)cc1 (centres unmarked) [Example 10, N-[2-(4-{2-Carbomethoxyethylsulphonyl}phenyl)-1-methylethyl] -2-hydroxy-2-(3-chlorophenyl)ethanamine]",inhibition in vivo at 1 µmol/kg,Female CFLP mice; [4],10%
same,Emax at 30 µg,Rat hearts; [2],31%
same,Emax at 30 µg,Rat hearts; [3],91%
"CC(Cc1ccc(CS(C)(=O)=O)cc1)NCC(O)c1cccc(C(F)(F)F)c1 (stereo not drawn) [Example 11, N-[2-(4-Methylsulphonylmethylphenyl)-l-methylethyl] -2-hydroxy-2-(3-trifluoromethylphenyl)ethanamine]",Emax at 30 µg,Rat hearts; [2],67%
same,Emax at 30 µg,Rat hearts; [3],18%
"CC(Cc1ccc(CS(=O)(=O)C(C)C)cc1)NCC(O)c1cccc(C(F)(F)F)c1 (centres unmarked) [Example 12, N-[2-(4-Isopropylsulphonylmethylphenyl)-1-methylethyl] -2-hydroxy-2-(3-trifluoromethylphenyl)ethanamine]",Emax at 30 µg,Rat hearts; [2],13%
same,Emax at 30 µg,Rat hearts; [3],40%
"CC(Cc1ccc(S(=O)(=O)C(C)(C)C)cc1)NCC(O)c1cccc(Cl)c1 (centres unmarked) [Example 15, N-(2-(4-t-Butylsulphonylphenyl)-1-methylethyl]-2-hydroxy-2-(3-chlorophenyl)ethanamine hydrobromide]",inhibition in vivo at 100 µmol/kg,Female CFLP mice; 2 h,48%
"CC(Cc1ccc(SC(C)C)cc1)NCC(O)c1ccccc1 (centres unmarked) [Example 17, N-[2-(4-Isopropylthiophenyl)-1-methylethyl]-2-hydroxy-2-phenylethanamine]",inhibition in vivo at 2.5 µmol/kg,Female CFLP mice; 2 h,30%
CSc1ccc(C[C@H](C)NC[C@H](O)c2cccc(Cl)c2)cc1 [Example 18],inhibition in vivo at 5 µmol/kg,Female CFLP mice; 2 h,16%
"CSc1ccc(C[C@@H](C)NC[C@H](O)c2cccc(Cl)c2)cc1 [Example 19, (RR, SS)-N-[2-(4-Methylthiophenyl)-1-methylethyl]-2-luydroxy-1-(3-chlorophenyl) ethanamine hydrochloride]",inhibition in vivo at 2.5 µmol/kg,Female CFLP mice; 2 h,26%
"CC(Cc1ccc([S+](C)[O-])cc1)NCC(O)c1cccc(Cl)c1 (centres unmarked) [Example 20, N-[2-(4-Methylsulphinylphenyl)-1-methylethyl]-2-hydroxy-2-(3-chlorophenyl) ethanamine]",inhibition in vivo at 12.5 µmol/kg,Female CFLP mice; [1],59%
"COCCSc1ccc(CC(C)NCC(O)c2cccc(Cl)c2)cc1 (centres unmarked) [Example 21, N-[2-(4-(2-Methoxyethylthio)phenyl)-1-methylethyl]-2-hydroxy-2-(3-chlorophenyl)ethanamine hydrochloride]",inhibition in vivo at 1 µmol/kg,Female CFLP mice; 2 h,31%
"CC(Cc1ccc(SCCOc2ccccc2)cc1)NCC(O)c1cccc(Cl)c1 (centres unmarked) [Example 22, N-[2-(4-(2-Phenoxyethylthio)phenyl)-1-methyletlzyl]-2-hydroxy-2-(3-chlorophenyl) ethanamine]",inhibition in vivo at 2.5 µmol/kg,Female CFLP mice; [5],23%
"CNCCSc1ccc(CC(C)NCC(O)c2cccc(Cl)c2)cc1 (centres unmarked) [Example 23, N-[2-(4-(2-Methylaminoethylthio)phenyl)-1-methlethyl]-2-hydrox-2-(3-chlorophenyl)ethanamine dihydrochloride]",inhibition in vivo at 1 µmol/kg,Female CFLP mice; [4],16%
"CC(Cc1ccc(SCCSc2ccccc2)cc1)NCC(O)c1cccc(Cl)c1 (centres unmarked) [Example 24, N-[2-(4-(2-Phenylthioethylthio)phenyl)-1-methylethyl]-2-hydroxy-2-(3-chlorophenyl)ethanamine]",inhibition in vivo at 2.5 µmol/kg,Female CFLP mice; [5],12%
